Assay results as given in patent publication US20180332879A1, “AGENT FOR IMPROVING AFTERTASTE HAVING HIGH INTENSITY SWEETENERS” (NAGAOKA CO., LTD., priority 2017, published 2018).
Residues, ends and D or L forms follow the SMILES beside them.

Columns and labels:
[1] = Sensory evaluation by seven panelists: improvement of the quality of sweetness and impure taste of a high-intensity sweetener solution after adding the improving agent; settings: summary of Table 2
Description: The resultant solution 1 (an aspartame solution) in Preparation Example 3 was added the resultant solution in Preparation Example 1 in an amount of 0.033% by mass. The concentration of isobutyl angelate added to the solution 1 was 0.0099 ppm by mass. The taste of the solution 1 having isobutyl angelate added thereto was evaluated by the following method.
The solution 1 (without addition of isobutyl angelate) was tasted by seven panelists (one twenty-something male, one thirty-something male, one forty-something male, one fifty-something male, one sixty-something male, and one twenty-something female and one thirty-something female). Subsequently, the seven panelists rinsed their mouths sufficiently, and then the solution 1 containing isobutyl angelate (with addition of isobutyl angelate) was tasted by the seven panelists. The panelists compared the isobutyl-angelate-free solution with the isobutyl-angelate-added solution, and then determined whether or not the quality of sweetness and the impure taste of the isobutyl-angelate-added solution were improved compared with the isobutyl-angelate-free solution in accordance with the following criteria. When the sum total of the scores determined by the seven panelists was 10 points or greater, it was determined that the quality of sweetness and the impure taste were improved. […]

[2] = Sweetness degree and taste characteristics of sweetener solutions equivalent to 8% by mass aqueous sugar solution; settings: intensity of sweetness, sweetness degree of sugar defined as 1
Description: Solutions, each having a sweetness degree corresponding to an 8% by mass aqueous sugar solution, were prepared using the various high-intensity sweeteners shown in Table 1. In Table 1, each of the sweetness degrees represents the intensity of sweetness wherein the sweetness degree of sugar is defined as 1, and each of the concentrations represents the concentration of a high-intensity sweetener in the solution.

Row | Structure (SMILES) | Unpleasant aftertaste and impure taste (harsh, astringent) of a high-intensity sweetener in a solution [1] | Sweetness degree [2] [times]
1 | C/C=C(/C)C(=O)OCC(C)C [isobutyl angelate, Isobutyl angelate] | can be improved | –
2 | COC(=O)[C@H](Cc1ccccc1)NC(=O)[C@@H](N)CC(=O)O [Aspartame] (H-Asp-Phe-OMe) | – | 200
3 | CC1=CC(=O)NS(=O)(=O)O1 [Acesulfame potassium] | – | 200
4 | OC[C@H]1O[C@H](O[C@]2(CCl)O[C@H](CCl)[C@@H](O)[C@@H]2O)[C@H](O)[C@@H](O)[C@H]1Cl [Sucralose] | – | 600
